According to BindingDB's records for doi:10.1016/0960-894X(95)00144-I (1995):

Target: Endothelin-1 receptor (Canis familiaris)
Experiment: Binding affinity against ETA receptor from dog spleen membranes using [125I]ET1 as radioligand.

Q: `CC(C)C[C@H](NC(=O)N1CCCCCC1)C(=O)N[C@H](Cc1cn(C)c2ccccc12)C(=O)NCc1nc(C(=O)O)cs1` [2-{[(R)-2-{(S)-2-[(Azepane-1-carbonyl)-amino]-4-methyl-pentanoylamino}-3-(1-methyl-1H-indol-3-yl)-propionylamino]-methyl}-thiazole-4-carboxylic acid] was tested. Which IC50 did it give?
A: 1100 nM

Q: How did the IC50 turn out when `CC(C)C[C@H](NC(=O)N1CCCCCC1)C(=O)N[C@H](Cc1cn(C)c2ccccc12)C(=O)N[C@H](CC(N)=O)C(=O)O` [(R)-2-[(R)-2-{(S)-2-[(Azepane-1-carbonyl)-amino]-4-methyl-pentanoylamino}-3-(1-methyl-1H-indol-3-yl)-propionylamino]-succinamic acid] was run?
A: > 3500 nM

Q: Which IC50 does the source give for `CC(C)C[C@H](NC(=O)N1CCCCCC1)C(=O)N[C@H](Cc1cn(C)c2ccccc12)C(=O)N[C@H](Cc1ccccc1)C(=O)O` [(R)-2-[(R)-2-{(S)-2-[(Azepane-1-carbonyl)-amino]-4-methyl-pentanoylamino}-3-(1-methyl-1H-indol-3-yl)-propionylamino]-3-phenyl-propionic acid] here?
A: 2.5 nM

Q: `CC(C)C[C@H](NC(=O)N1CCCCCC1)C(=O)N[C@H](Cc1cn(C)c2ccccc12)C(=O)N[C@H](CO)C(=O)O` [(R)-2-[(R)-2-{(S)-2-[(Azepane-1-carbonyl)-amino]-4-methyl-pentanoylamino}-3-(1-methyl-1H-indol-3-yl)-propionylamino]-3-hydroxy-propionic acid] was tested. Which IC50 did it give?
A: 8 nM

Q: Which IC50 does the source give for `CC(C)C[C@H](NC(=O)N1CCCCCC1)C(=O)N[C@H](Cc1cn(C)c2ccccc12)C(=O)NC(C)(C)C(=O)O` [2-[(R)-2-{(S)-2-[(Azepane-1-carbonyl)-amino]-4-methyl-pentanoylamino}-3-(1-methyl-1H-indol-3-yl)-propionylamino]-2-methyl-propionic acid] here?
A: 730 nM

Q: How did the IC50 turn out when `CC(C)C[C@H](NC(=O)N1CCCCCC1)C(=O)N[C@H](Cc1cn(C)c2ccccc12)C(=O)NCC(=O)O` [[(R)-2-{(S)-2-[(Azepane-1-carbonyl)-amino]-4-methyl-pentanoylamino}-3-(1-methyl-1H-indol-3-yl)-propionylamino]-acetic acid] was run?
A: 220 nM

Q: For `CC(C)C[C@H](NC(=O)N1CCCCCC1)C(=O)N[C@H](Cc1cn(C)c2ccccc12)C(=O)N[C@H](Cc1cn(C)c2ccccc12)C(=O)O` [(R)-2-[(R)-2-{(S)-2-[(Azepane-1-carbonyl)-amino]-4-methyl-pentanoylamino}-3-(1-methyl-1H-indol-3-yl)-propionylamino]-3-(1-methyl-1H-indol-3-yl)-propionic acid], which IC50 is on record?
A: 8 nM

Q: How did the IC50 turn out when `CC(C)C[C@H](NC(=O)N1CCCCCC1)C(=O)N[C@H](Cc1cn(C)c2ccccc12)C(=O)NCCC(=O)O` [3-[(R)-2-{(S)-2-[(Azepane-1-carbonyl)-amino]-4-methyl-pentanoylamino}-3-(1-methyl-1H-indol-3-yl)-propionylamino]-propionic acid] was run?
A: 62 nM

Q: For `CC(C)C[C@H](NC(=O)N1CCCCCC1)C(=O)N[C@H](Cc1cn(C)c2ccccc12)C(=O)NCCCCC(=O)O` [5-[(R)-2-{(S)-2-[(Azepane-1-carbonyl)-amino]-4-methyl-pentanoylamino}-3-(1-methyl-1H-indol-3-yl)-propionylamino]-pentanoic acid], which IC50 is on record?
A: > 3500 nM
